The values below come from ChEMBL document CHEMBL5055651, “Synthesis of small molecules targeting paclitaxel-induced MyD88 expression in triple-negative breast cancer cell lines” (Bioorg Med Chem, 2021).

SMILES strings stand for the structures.

The test system of series [1] is MDA-MB-231. In words: Cytotoxicity against human MDA-MB-231 cells expressing TLR4 assessed as cell viability at 10 uM measured after 96 hrs by MTT assay relative to control. The series is classed as functional. Conditions: read-out: Activity. (Tetrazolium dyes change colour on reduction, which living cells bring about.)
The subject of series [2] is HCC1806. In words: Cytotoxicity against human HCC1806 cells assessed as cell viability at 10 uM measured after 96 hrs by MTT assay relative to control. The series is classed as functional. As to conditions: read-out: Activity.
Series [3] has as its system MCF7. In words: Cytotoxicity against human MCF7 cells expressing TLR4 assessed as cell viability at 10 uM measured after 96 hrs by MTT assay relative to control. It is filed as functional. Conditions: read-out: Activity.
Series [4] in a line: Suppression of MyD88 expression in human MDA-MB-231 cells expressing TLR4 at 1 uM pretreated with compounds for 24 hrs followed by PTX challenge and measured after 24 hrs by ELISA relative to control. Conditions: time 48 hrs. The series is classed as functional. (ELISA stands for enzyme-linked immunosorbent assay.)
The subject of series [5] is HCC1806. In words: Cytotoxicity against human HCC1806 cells assessed as reduction in cell viability measured after 96 hrs by MTT assay. It is filed as functional, cell-based. As to conditions: HCC1806, 96 h.
Series [6] can be described thus: Suppression of MyD88 expression in human MDA-MB-231 cells expressing TLR4 at 0.1 uM pretreated with compounds for 24 hrs followed by PTX challenge and measured after 24 hrs by ELISA relative to control. It is filed as functional. As to conditions: time 48 hrs.
Series [7] has as its system HCC1806. In words: Cytotoxicity against human HCC1806 cells assessed cell growth inhibition at 10 uM measured after 96 hrs by MTT assay relative to control. It is filed as functional. Conditions: read-out: GI.
Series [8] deals with MCF7. In words: Cytotoxicity against human MCF7 cells expressing TLR4 assessed as reduction in cell viability measured after 96 hrs by MTT assay. It is filed as functional, cell-based. As to conditions: MCF7, 96 h.
The nature of series [9]: Suppression of MyD88 expression in human MDA-MB-231 cells expressing TLR4 at 10 uM pretreated with compounds for 24 hrs followed by PTX challenge and measured after 24 hrs by ELISA relative to control. The series is classed as functional. As to conditions: time 48 hrs.
In series [10] the test system is MDA-MB-231. Put plainly: Cytotoxicity against human MDA-MB-231 cells expressing TLR4 assessed cell growth inhibition at 10 uM measured after 96 hrs by MTT assay relative to control. The series is classed as functional. As to conditions: read-out: GI.
The test system of a further series is BEAS-2B. Put plainly: Cytotoxicity against human BEAS-2B cells reduction in cell viability measured after 96 hrs by MTT assay. It is filed as cell-based.
The test system of series [11] is MDA-MB-231. In words: Cytotoxicity against human MDA-MB-231 cells expressing TLR4 assessed as reduction in cell viability measured after 96 hrs by MTT assay. The series is classed as functional, cell-based. As to conditions: MDA-MB-231, 96 h.
Series [12] deals with MCF7. Put plainly: Cytotoxicity against human MCF7 cells expressing TLR4 assessed cell growth inhibition at 10 uM measured after 96 hrs by MTT assay relative to control. It is filed as functional. As to conditions: read-out: GI.
Series [13] in a line: Effect on MyD88 expression in human MDA-MB-231 cells expressing TLR4 at 0.1 to 10 uM after 24 hrs by ELISA. Conditions: mda-mb-231, 24 h, dose 0.1-10 µM. It is filed as cell-based.
Series [14] is described as follows: Selectivity index, ratio of IC50 for human BEAS-2B cells to IC50 for human MDA-MB-231 cells. The series is classed as toxicity. As to conditions: BEAS-2B cells versus MDA-MB-231 cells, read-out: Selectivity Index.
Series [15] relates to HCC1806. Put plainly: Cytotoxicity against human HCC1806 cells assessed as growth inhibition measured after 96 hrs by MTT assay. It is filed as cell-based. As to conditions: HCC1806, 96 h.
Series [16] can be described thus: Selectivity index, ratio of IC50 for human BEAS-2B cells to IC50 for human MCF7 cells. The series is classed as toxicity. As to conditions: BEAS-2B cells versus MCF7 cells, read-out: Selectivity Index.
Series [17] concerns MDA-MB-231. Put plainly: Cytotoxicity against human MDA-MB-231 cells expressing TLR4 assessed as growth inhibition measured after 96 hrs by MTT assay. The series is classed as functional, cell-based. Conditions: MDA-MB-231, 96 h.

In the case of `COc1cc(C)ccc1/C=C1\CCCC(C(=O)c2ccccc2)=C1O`, the viability at 10 µM with MDA-MB-231 [1], with HCC1806 [2] and in the series with MCF7 [3] was 87% each time.

Regarding `O=C(C1=C(O)/C(=C/c2ccc(C(F)(F)F)cc2)CCC1)c1ccccc1`, the Activity in series [4] is on record as 24.77%; in series [6], 17.64%; in series [9] it was 27.94%; in series [13], 23%. Also, the half-maximal inhibitory concentration (IC50) (in general, the concentration at which inhibition is half-maximal) came out at 5330 nM in the series with HCC1806 [5], 2300 nM with MCF7 [8], 3800 nM with BEAS-2B and 6500 nM in the series on MDA-MB-231 [11]. Besides, the inhibition of growth at 10 µM in the series with HCC1806 [7], in the series with MDA-MB-231 [10] and in the series with MCF7 [12] was 8% in each case.

Turning to `CC(=O)O[C@H]1C(=O)[C@@]2(C)[C@H]([C@H](OC(=O)c3ccccc3)[C@]3(O)C[C@H](OC(=O)[C@H](O)[C@@H](NC(=O)c4ccccc4)c4ccccc4)C(C)=C1C3(C)C)[C@]1(OC(C)=O)CO[C@@H]1C[C@@H]2O` [PACLITAXEL], the IC50 in the series on HCC1806 [5] is 9 nM; with HCC1806 [15] it was 8 nM; in the series on MCF7 [8], 30 nM; in the series with BEAS-2B it was 8 nM; in the series on MDA-MB-231 [11] it was 40 nM; in the series with MDA-MB-231 [17] it was 27 nM. Besides, the selectivity ratio is 0.2 in [14] and 0.26 in series [16].
